Experimental findings from paper PMC7827481, “Development of A Continuous Fluorescence-Based Assay for N-Terminal Acetyltransferase D” (International Journal of Molecular Sciences, 2021) are described below.

The target of data set [1] is T1, N-terminal acetyltransferase D (NatD) (Homo sapiens, UniProt Q86UY6).
T1 construct: gene NAA40; full-length human NatD, untagged
As to the kind of experiment: ThioGlo4 fluorescence acetyltransferase assay. It is filed as biochemical.

Data set [2] deals with T1, N-terminal acetyltransferase D (NatD). As to the kind of experiment: ThioGlo4 fluorescence acetyltransferase assay; confirmed by MALDI-MS (IC50 […]). It is filed as biochemical.
Data set [3] has the same target. As to the kind of experiment: MALDI-MS acetylation inhibition at […] (also […], […] in fluorescence assay). It is filed as biochemical.
Data set [4] shares this target. As to the kind of experiment: ThioGlo4 fluorescence acetyltransferase assay; confirmed by MALDI-MS ([…] at […]). It is filed as biochemical.
In data set [5] the test system is CC(=O)SCCNC(=O)CCNC(=O)[C@H](O)C(C)(C)COP(=O)(O)OP(=O)(O)OC[C@H]1O[C@@H](n2cnc3c(N)ncnc32)[C@H](O)[C@@H]1OP(=O)(O)O. As to the kind of experiment: purified protein. To be noted: AcCoA binding site.

What is called IC50 is the concentration that gives 50% inhibition. As to `C[C@H](NC(=O)/C(C#N)=C/c1ccc(O)c(O)c1)c1ccccc1` [AG 835], the IC50 in data set [1] was determined as 38 ± 2 µM. In turn, `O=C(O)C1=CC(=C(c2ccc(O)c(C(=O)O)c2)c2ccc(O)c(C(=O)O)c2)C=CC1=O` [P1401K09, aurintricarboxylic acid] returned an IC50 in data set [2] of 1.5 ± 0.1 µM. By inhibition is commonly meant the percentage by which the read-out fell short of the control. As for `Nc1c(S(=O)(=O)O)cc(Nc2ccc(Nc3nc(Cl)nc(Nc4cccc(S(=O)(=O)O)c4)n3)c(S(=O)(=O)O)c2)c2c1C(=O)c1ccccc1C2=O` [P1404C10, Reactive blue 2], 10 µM produced 100% inhibition in data set [3]. `C[C@@H](NC(=O)/C(C#N)=C/c1ccc(O)c(O)c1)c1ccccc1` [P1404L15, tyrphostin B44(-)] showed an IC50 in data set [4] of 63 ± 4 µM. Usually Km stands for the substrate concentration at which the rate is half of its maximum. As to “N-terminal acetyltransferase D (NatD) (Homo sapiens)”, the Km in data set [5] is recorded as 0.5 ± 0.06 µM.
